Like-named read-outs stand apart in the source and are kept apart here.
Tests used:
rat islets [1] = assay: BCH-stimulated insulin secretion and oxygen consumption in perifused islets; assay type: cell-based, Wistar rat
Protocol: In this Example, the effects of EGCG and EGC on LSIS were measured, while simultaneously monitoring respiration rates. More particularly, the effects of EGCG (20 μM) and EGC (20 μM) on BCH-stimulated insulin secretion were measured. First, 1000 adult male Wistar rat islets were isolated as described above and were cultured on a glass perfusion chamber in 10 mM glucose for 3 days. Next, the islets were perifused in an oxygen consumption measurement apparatus containing BCH, along with 0 μM EGCG and 0 μM EGC, 20 μM EGCG, or 20 μM EGC. The perifusion apparatus used in these Examples consisted of a peristaltic pump, a water bath (37° C.), a gas exchanger (artificial lung: media flowed through the thin-walled silastic tubing loosely coiled in a glass jar that contained 20% O2 and 5% CO2 balanced with N2), and fraction collector. All transfer lines were insulated. After the system was provided with 20 μM EGCG or 20 μM EGC, oxygen partial pressure was recorded every 10 seconds by phosphorescence lifetimes of an oxygen-sensitive porphyrin (palladium-mesotetra; 4-carboxyphenyl porphyrin dendrimer). The dye molecules were excited with pulses at 524 nm from a UV lead and emission was measured at 690 nm. The inflow oxygen tension was measured in the absence of islets in the chamber before and after each experiment. The perifusate was a Krebs buffer (pH 7.4) containing 2.2 mM Ca^2+, 1% bovine serum albumin equilibrated with 20% O2 and 5% CO2 balanced with N2. The flow rate was […] and samples were collected every 2 minutes for insulin measurements by radioimmunoassay. The results are summarized in FIG. 6, and are presented as means±S.E. for 1000 islets from 3 separate experiments for EGCG (and from 1 experiment for EGC). Due to the high density of data, S.E. is only shown in every 20 samples.

islets = assay: [U-14C]-glucose oxidation in islets; assay type: cell-based, rat; details: wide range of EGCG concentrations; 3 mM or 12 mM glucose; FIG. 10
Protocol: In addition, the effect of EGCG on glucose oxidation was measured. More particularly, batches of 100 islets were prepared as described herein and preincubated with glucose-free Krebs-Ringer bicarbonate buffer containing varying concentrations of EGCG (shown in FIG. 10) for 60 minutes. Islets were then incubated with 3 mM or 12 mM glucose, in the presence of the varying concentrations of EGCG, for another 60 minutes, along with 2 mCi [U-^14C]-glucose (NEN-Life Science Products, UK). Production of ^14CO2 was monitored as described above.

GDH = biological target: T1, GDH (Bos taurus, UniProt P00366); assay: abrogation of EGCG inhibition of GDH by leucine, BCH and ADP; assay type: biochemical, bovine
T1 construct: purchased Sigma Aldrich Chemical Company (St. Louis, Mo.)
Protocol: (§1) First, aliquots of GDH were extensively dialyzed against 0.1M sodium phosphate buffer, pH 7.0, which contained 1 mM ethylenediaminetetraacetic acid (EDTA). The enzyme concentrations were adjusted to 1 mg/ml and the amount of enzyme added to the reaction mixture, for kinetic analysis, was adjusted to yield optimal steady state velocity measurements. All solutions were made immediately prior to use. Enzyme assays were performed by monitoring reduced coenzyme absorbance at 340 nm using a Shimadzu UV-1601 spectrophotometer. The reductive amination reactions were performed in 3 mL volumes at pH 7.0 in the presence of 0.1 mM nicotinamide adenine dinucleotide (NADH), 50 mM NH4Cl, and 5 mM 2-oxoglutarate. The rate of NADH oxidation was calculated using an extinction coefficient of 6.22 mM^−1 cm^−1.
The ability of the activators BCH, leucine, and ADP to reverse EGCG regulation on GDH was next examined. More particularly, kinetic analysis of GDH activity was carried out as described in Example 1, wherein each reaction contained either (a) 0 μM EGCG plus leucine; (b) 1 μM EGCG plus leucine; (c) 0 μM EGCG plus BCH; (d) 1 μM EGCG plus BCH; (e) 0 μM EGCG plus ADP; or (f) 1 μM EGCG plus ADP.

rat islets [2] = assay: BCH-stimulated insulin secretion in perifused islets (120 minute run-down, BCH ramp); assay type: cell-based, Wistar rat
Protocol: In this Example, adult male Wistar rat islets were isolated by collagenase digestion and initially cultured in glucose-free RPMI […] medium (Sigma Aldrich Chemical Company, St. Louis, Mo.). The culture medium was supplemented with 10% fetal bovine serum, 2 mM glutamine, 100 units/mL penicillin, and 50 μg/mL streptomycin.
The islets were then perifused in the absence of glucose and in the presence of 2 mM glutamine (and the different concentrations of EGCG or EGC shown in FIG. 5) for run-down periods of 120 minutes prior to stimulation with a BCH ramp (0 to 10 mM, 0.2 mM/minute). Specifically, 100 cultured rat islets were loaded onto nylon filters in a small chamber and perifused in a Krebs-Ringer bicarbonate buffer (115 mmol/liter NaCl, 24 mmol/liter NaHCO3, 5 mmol/liter KCl, 1 mmol/liter MgCl2, 2.5 mmol/liter CaCl2, in 10 mM HEPES, pH 7.4) with 0.25% bovine serum albumin at a flow rate of 2 mL/minute. Perifusate solutions were gassed with 95% O2/5% CO2 and maintained at 37° C. Finally, the islets were exposed to 30 mM KCl. Samples were collected every minute to measure insulin levels by radioimmunoassay.

[3] = tested on: GDH from Tetrahymena thermophilia (tGDH); assay: kinetic analysis of Tetrahymena GDH; assay type: biochemical; details: FIG. 4
Protocol: as §1
(§2) To this end, EGCG was tested against five different HI/HA mutant forms of GDH, namely, R265K, R269C, E296A, S448P, and H454Y. In addition, EGCG was tested against human wild type GDH (“WT”), GDH from Tetrahymena thermophilia (“tGDH”) that, like the HI/HA mutant GDH enzymes, is not regulated by GTP, and a human GDH that was missing a certain 48 residue ‘antenna-like’ feature protruding from the top of each of its six subunits that is necessary for ADP, GTP, and Palmitoyl CoA regulation. […]

[4] = tested on: HI/HA mutant forms of GDH (R265K, R269C, E296A, S448P, H454Y); assay: kinetic analysis of HI/HA mutant forms of GDH; assay type: biochemical, human; details: FIG. 4
Protocol: as §1, §2

T1 sequence (P00366 58-558): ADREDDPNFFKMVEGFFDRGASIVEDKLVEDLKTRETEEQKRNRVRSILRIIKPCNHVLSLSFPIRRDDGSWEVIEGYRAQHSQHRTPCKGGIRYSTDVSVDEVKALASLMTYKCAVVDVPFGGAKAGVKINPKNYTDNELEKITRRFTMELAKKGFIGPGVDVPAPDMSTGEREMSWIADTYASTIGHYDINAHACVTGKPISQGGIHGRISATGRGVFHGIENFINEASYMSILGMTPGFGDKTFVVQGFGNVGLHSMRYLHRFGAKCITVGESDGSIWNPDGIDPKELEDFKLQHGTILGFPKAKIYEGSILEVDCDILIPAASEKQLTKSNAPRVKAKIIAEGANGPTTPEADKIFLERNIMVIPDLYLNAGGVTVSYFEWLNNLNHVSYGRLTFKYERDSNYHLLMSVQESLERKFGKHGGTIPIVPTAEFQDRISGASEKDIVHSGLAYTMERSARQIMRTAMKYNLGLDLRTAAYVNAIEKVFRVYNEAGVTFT

## O=C(O[C@@H]1Cc2c(O)cc(O)cc2O[C@@H]1c1cc(O)c(O)c(O)c1)c1cc(O)c(O)c(O)c1 [EGCG, (2R,3R)-2-(3,4,5-Trihydroxyphenyl)-3,4-dihydro-1 (2H)-benzopyran-3,5,7-triol 3-(3,4,5-trihydroxybenzoate)]
Rat islets [1]; 20 μM, FIG. 6A
  effect on LSIS (BCH-induced insulin secretion): strongly inhibited
Rat islets [1]; 20 μM, FIG. 6B
  effect on BCH-induced increase in respiration rates: inhibited
Rat islets [1]; data not shown
  effect on oxygen consumption in the absence of BCH: did not have any significant effect
islets
  effect on glucose oxidation: did not affect
GDH; 1 μM EGCG plus leucine, BCH or ADP, read-out: EGCG inhibition at the highest concentration of activators
  inhibition at 1 µM: ~30%
GDH; 1 μM EGCG, without activator, read-out: inhibition of the reaction
  inhibition at 1 µM: > 80%
Rat islets [2]; 30 mM KCl
  intrinsic ability of the cells to secrete insulin (depolarization by KCl): did not affect
Rat islets [2]; FIG. 5
  BCH stimulation of insulin secretion blocked: blocked
[3]
  inhibition of tGDH: inhibited
[4]
  inhibition of the activity of HI/HA GDH enzymes: substantially the same efficacy as with wild type human GDH

— US20060263453A1, “Methods and compositions for modulating glutamate dehydrogenase” (priority 2004, published 2006)
